Test results published in PubChem BioAssay (NCI).
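Compound exposure: 48 hours, 5 concentrations, 96-well plates. GI50 marks 50% less growth. TGI is the concentration that stops growth completely.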

Tests used:
Experiment in all cases: NCI tumour cell line growth inhibition, 48 h
[1] = test system: 786-0 renal
[2] = test system: NCI/ADR-RES ovarian
[3] = test system: U251 CNS
[4] = test system: SK-OV-3 ovarian
[5] = test system: EKVX NSCLC
[6] = test system: RXF 393 renal
[7] = test system: OVCAR-8 ovarian
[8] = test system: TK-10 renal
[9] = test system: SK-MEL-2 melanoma
[10] = test system: NCI-H23 lung
[11] = test system: A498 renal
[12] = test system: NCI-H460 lung
[13] = test system: UACC-257 melanoma
[14] = test system: IGROV1 ovarian
[15] = test system: MDA-MB-231 breast
[16] = test system: HT29 colon
[17] = test system: PC-3 prostate
[18] = test system: A549 NSCLC
[19] = test system: MDA-MB-435
[20] = test system: ACHN renal
[21] = test system: CAKI-1 renal
[22] = test system: COLO 205 colon
[23] = test system: SF-295 CNS
[24] = test system: SNB-19 CNS
[25] = test system: HCT-15 colon
[26] = test system: CCRF-CEM leukemia
[27] = test system: SN12C renal
[28] = test system: NCI-H522 lung
[29] = test system: HL-60(TB) leukemia
[30] = test system: SW-620 colon
[31] = test system: MOLT-4 leukemia
[32] = test system: UACC-62 melanoma
[33] = test system: M14 melanoma
[34] = test system: HS 578T breast
[35] = test system: HCC-2998 colon
[36] = test system: UO-31 renal
[37] = test system: SR leukemia
[38] = test system: SF-268 CNS
[39] = test system: HCT-116 colon
[40] = test system: K-562 leukemia
[41] = test system: RPMI-8226 leukemia
[42] = test system: MCF7 breast
[43] = test system: NCI-H226 lung
[44] = test system: LOX IMVI melanoma
[45] = test system: KM12 colon
[46] = test system: OVCAR-3 ovarian
[47] = test system: BT-549 breast
[48] = test system: SK-MEL-5 melanoma
[49] = test system: OVCAR-5 ovarian
[50] = test system: T-47D breast

COc1cc2c(/C=N\N=C(N)N)c[nH]c2cc1C
GI50 [1]: 19.4 µM
TGI [1]: 46.8 µM
GI50 [2]: 22 µM
TGI [2]: 59.4 µM
GI50 [3]: 13.2 µM
TGI [3]: 27.3 µM
GI50 [4]: 25.8 µM
TGI [4]: 62.2 µM
GI50 [5]: 28.3 µM
TGI [5]: 88.5 µM
GI50 [6]: 62.1 µM
TGI [6]: > 100 µM
GI50 [7]: 40.2 µM
TGI [7]: > 100 µM
GI50 [8]: 38.4 µM
TGI [8]: > 100 µM
GI50 [9]: 32.7 µM
TGI [9]: > 100 µM
GI50 [10]: 18.7 µM
TGI [10]: 53.5 µM
GI50 [11]: 27.3 µM
TGI [11]: 73.9 µM
GI50 [12]: 14.7 µM
TGI [12]: 27.8 µM
GI50 [13]: 36.8 µM
TGI [13]: > 100 µM
GI50 [14]: 33.2 µM
TGI [14]: > 100 µM
GI50 [15]: 14.7 µM
TGI [15]: 34.1 µM
GI50 [16]: 18 µM
TGI [16]: 37.1 µM
GI50 [17]: 14.3 µM
TGI [17]: 27.4 µM
GI50 [18]: > 100 µM
TGI [18]: > 100 µM
GI50 [19]: 17 µM
TGI [19]: 33.2 µM
GI50 [20]: 24.3 µM
TGI [20]: > 100 µM
GI50 [21]: 37.5 µM
TGI [21]: > 100 µM
GI50 [22]: 17.3 µM
TGI [22]: 35.1 µM
GI50 [23]: 15.4 µM
TGI [23]: 43.4 µM
GI50 [24]: 19.2 µM
TGI [24]: 54.5 µM
GI50 [25]: 35.8 µM
TGI [25]: > 100 µM
GI50 [26]: 14.6 µM
TGI [26]: 27.7 µM
GI50 [27]: 11.2 µM
TGI [27]: 37.5 µM
GI50 [28]: 17.3 µM
TGI [28]: 32.9 µM
GI50 [29]: 15.9 µM
TGI [29]: 29.4 µM
GI50 [30]: 16.1 µM
TGI [30]: 29.6 µM
GI50 [31]: 14.2 µM
TGI [31]: 27.2 µM
GI50 [32]: 16 µM
TGI [32]: 33 µM
GI50 [33]: 15.1 µM
TGI [33]: 28.3 µM
GI50 [34]: 18.5 µM
TGI [34]: 40 µM
GI50 [35]: 15.8 µM
TGI [35]: 29.2 µM
GI50 [36]: > 100 µM
TGI [36]: > 100 µM
GI50 [37]: 16.5 µM
TGI [37]: 30.1 µM
GI50 [38]: 12.5 µM
TGI [38]: 28.7 µM
GI50 [39]: 14.6 µM
TGI [39]: 27.7 µM
GI50 [40]: 17.1 µM
TGI [40]: 30.8 µM
GI50 [41]: 14.3 µM
TGI [41]: 27.4 µM
GI50 [42]: 13 µM
TGI [42]: 25.7 µM
GI50 [43]: 17.1 µM
TGI [43]: 71.8 µM
GI50 [44]: 31.8 µM
TGI [44]: > 100 µM
GI50 [45]: 14.9 µM
TGI [45]: 28 µM
GI50 [46]: 13.5 µM
TGI [46]: 27.3 µM
GI50 [47]: 15.3 µM
TGI [47]: 28.5 µM
GI50 [48]: 17.2 µM
TGI [48]: 30.9 µM
GI50 [49]: 21.4 µM
TGI [49]: 64 µM
GI50 [50]: 11.7 µM
TGI [50]: 27.9 µM
